In ChEMBL document CHEMBL1201862, “PubChem BioAssay data set” (2004):
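The compound was tested at five concentrations on cells cultured in 96-well plates, with a 48-hour exposure period. GI50 = concentration required for 50% inhibition of growth.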 Calls of active or inactive are those of the source. No stated cut-off is given here; in the data, active = GI50 up to about 1.1 µM and inactive = higher.

Columns and labels:
Test in all cases: inhibition of tumour cell growth, NCI panel, 48 h
HCT-116 = system: HCT-116
UACC-62 = system: UACC-62
OVCAR-8 = system: OVCAR-8
MOLT-4 = system: MOLT-4
ACHN = system: ACHN
OVCAR-3 = system: OVCAR-3
CCRF-CEM = system: CCRF-CEM
UO-31 = system: UO-31
SNB-75 = system: SNB-75
HCT-15 = system: HCT-15
TK-10 = system: TK-10
SK-MEL-28 = system: SK-MEL-28
M14 = system: M14
NCI-H226 = system: NCI-H226
HOP-92 = system: HOP-92
RXF 393 = system: RXF 393

Row | Structure (SMILES) | GI50 (HCT-116) | GI50 (UACC-62) | GI50 (OVCAR-8) | GI50 (MOLT-4) | GI50 (ACHN) | GI50 (OVCAR-3) | GI50 (CCRF-CEM) | GI50 (UO-31) | GI50 (SNB-75) | GI50 (HCT-15) [µM] | GI50 (TK-10) | GI50 (SK-MEL-28) | GI50 (M14) | GI50 (NCI-H226) | GI50 (HOP-92) | GI50 (RXF 393)
1 | COC(=O)C1Cc2c([nH]c3ccccc23)C(C2CCCCC2)N1 (configuration not stated) | > 100 µM (inactive) | > 100 µM (inactive) | > 100 µM (inactive) | > 100 µM (inactive) | > 100 µM (inactive) | > 100 µM (inactive) | > 100 µM (inactive) | > 100 µM (inactive) | > 100 µM (inactive) | > 100 | > 100 µM (inactive) | > 100 µM (inactive) | > 100 µM (inactive) | > 100 µM (inactive) | > 100 µM (inactive) | 
2 | Cc1cccc(C)c1NC(=O)/C(=N/NC(N)=S)C(C)C(=O)c1ccc(Cl)cc1 (configuration not stated) | > 100 µM (inactive) | > 100 µM (inactive) | > 100 µM (inactive) | > 100 µM (inactive) | > 100 µM (inactive) | > 100 µM (inactive) | > 100 µM (inactive) | > 100 µM (inactive) | > 100 µM (inactive) | > 100 | > 100 µM (inactive) | > 100 µM (inactive) | > 100 µM (inactive) | > 100 µM (inactive) | > 100 µM (inactive) | 
3 | COc1ccc2cc3[n+](cc2c1OC)CCc1cc(O)c(O)cc1-3 | > 100 µM (inactive) | > 100 µM (inactive) | > 100 µM (inactive) | > 100 µM (inactive) |  | > 100 µM (inactive) | > 100 µM (inactive) | > 100 µM (inactive) | > 100 µM (inactive) | > 100 | > 100 µM (inactive) |  | > 100 µM (inactive) | > 100 µM (inactive) | > 100 µM (inactive) | > 100 µM (inactive)
4 | CCCc1cc(OC(=O)c2c(O)cc(OC)cc2CCC)cc(O)c1C(=O)O | 17.4 µM (inactive) | 35.7 µM (inactive) | 37.5 µM (inactive) | 29.5 µM (inactive) | 27.9 µM (inactive) | 20.6 µM (inactive) | 32.8 µM (inactive) | 13 µM (inactive) | 27.5 µM (inactive) |  | 48.5 µM (inactive) | 28.2 µM (inactive) | 28.4 µM (inactive) |  | 13.5 µM (inactive) | 16.6 µM (inactive)
5 | COc1cc2c(cc1OC)C1C=NC(C(=O)O)(C2)c2ccccc21 (configuration not stated) | > 100 µM (inactive) | > 100 µM (inactive) | > 100 µM (inactive) | > 100 µM (inactive) |  | > 100 µM (inactive) | 52.5 µM (inactive) | > 10 µM (inactive) | > 100 µM (inactive) | > 100 | > 100 µM (inactive) |  | > 100 µM (inactive) | > 100 µM (inactive) | > 100 µM (inactive) | > 100 µM (inactive)
6 | O=C1/C(=C/c2cc(O)c(O)c(O)c2)Oc2cc(O)cc(OC3OC(CO)C(O)C(O)C3O)c21 (configuration not stated) | 16.3 µM (inactive) | 16 µM (inactive) | 18.2 µM (inactive) | 19.1 µM (inactive) | 11.6 µM (inactive) | 14.9 µM (inactive) | 17.5 µM (inactive) | 32.4 µM (inactive) | > 100 µM (inactive) | 22.4 | 30.5 µM (inactive) | 46.3 µM (inactive) | 21.5 µM (inactive) |  | 3.82 µM (inactive) | 
7 | O=[PH](O)c1cc2c3ccccc3ccc2c2ccccc12 | > 100 µM (inactive) | > 100 µM (inactive) | > 100 µM (inactive) | > 100 µM (inactive) |  | > 100 µM (inactive) | > 100 µM (inactive) |  | > 100 µM (inactive) |  | > 100 µM (inactive) | > 100 µM (inactive) | > 100 µM (inactive) | 13.9 µM (inactive) |  | > 100 µM (inactive)
8 | Cc1ccc2c(c1)CNc1ccc(C)cc1CN2 | > 100 µM (inactive) | > 100 µM (inactive) | > 100 µM (inactive) | > 100 µM (inactive) | > 100 µM (inactive) | > 100 µM (inactive) | > 100 µM (inactive) | > 100 µM (inactive) | 3.19 µM (inactive) | > 100 |  |  | > 100 µM (inactive) | > 100 µM (inactive) | > 100 µM (inactive) | 
9 | CCOC(=O)C1(C/C=C(/C)Cl)CCCC1=O (configuration not stated) | > 100 µM (inactive) | > 100 µM (inactive) | > 100 µM (inactive) | > 100 µM (inactive) | > 100 µM (inactive) | > 100 µM (inactive) | > 100 µM (inactive) | > 100 µM (inactive) | > 100 µM (inactive) | 26.7 | > 100 µM (inactive) | > 100 µM (inactive) | > 100 µM (inactive) | > 100 µM (inactive) |  | > 100 µM (inactive)
10 | CN1C(=O)C(=CN)C(=O)N(C)C1=O |  |  | > 100 µM (inactive) | > 100 µM (inactive) | > 100 µM (inactive) | > 100 µM (inactive) | > 100 µM (inactive) | > 100 µM (inactive) | > 100 µM (inactive) | > 100 | > 100 µM (inactive) | > 100 µM (inactive) | > 100 µM (inactive) | > 100 µM (inactive) | > 100 µM (inactive) | > 100 µM (inactive)
11 | CC1CC(C2=CC=CCS2)=Nc2ccccc2S1 (configuration not stated) | 84.9 µM (inactive) | > 100 µM (inactive) | > 100 µM (inactive) | > 100 µM (inactive) | > 100 µM (inactive) | > 100 µM (inactive) | > 100 µM (inactive) | > 100 µM (inactive) | 14.1 µM (inactive) | > 100 | > 100 µM (inactive) | > 100 µM (inactive) | > 100 µM (inactive) |  | 48.4 µM (inactive) | > 100 µM (inactive)
12 | CC(=O)/C=C1\CC(=O)Nc2ccccc2N1 | > 100 µM (inactive) | > 100 µM (inactive) | > 100 µM (inactive) |  | > 100 µM (inactive) |  | 2.79 µM (inactive) | > 100 µM (inactive) | > 100 µM (inactive) | > 100 | > 100 µM (inactive) | > 100 µM (inactive) | > 100 µM (inactive) | > 100 µM (inactive) | > 100 µM (inactive) | > 100 µM (inactive)
13 | C=CCc1cc(-c2cc(CC=C)c(O)c(CNCCCl)c2)cc(CNCCCl)c1O | 19.4 µM (inactive) | 14.6 µM (inactive) | 19.9 µM (inactive) | 16.9 µM (inactive) | 16.5 µM (inactive) | 21.4 µM (inactive) | 18.3 µM (inactive) | 14.5 µM (inactive) | 12.3 µM (inactive) | 16.4 | 19.6 µM (inactive) | 18.6 µM (inactive) | 18 µM (inactive) | 18.3 µM (inactive) | 10.6 µM (inactive) | 
14 | C/N=C(\N=c1/ss/c(=N\C)n1C)N(C)C.[O-][Cl+3]([O-])([O-])O |  | > 100 µM (inactive) | 97.1 µM (inactive) | 59.7 µM (inactive) | > 100 µM (inactive) | 53.1 µM (inactive) |  | > 100 µM (inactive) | > 100 µM (inactive) |  | > 100 µM (inactive) | > 100 µM (inactive) | > 100 µM (inactive) | 45.2 µM (inactive) | > 100 µM (inactive) | > 100 µM (inactive)
15 | CCOc1ccc(NC(=O)CC#N)cc1 | > 100 µM (inactive) | > 100 µM (inactive) | > 100 µM (inactive) | > 100 µM (inactive) | > 100 µM (inactive) | > 100 µM (inactive) | > 100 µM (inactive) | > 100 µM (inactive) | > 100 µM (inactive) |  | > 100 µM (inactive) | > 100 µM (inactive) | > 100 µM (inactive) | > 100 µM (inactive) |  | > 100 µM (inactive)
16 | Cc1nc2c3c(ccc2nc1O)C(=O)c1ccccc1C3=O | 40 µM (inactive) | 55.3 µM (inactive) | 80 µM (inactive) |  | 24.4 µM (inactive) | > 100 µM (inactive) |  | 6.15 µM (inactive) | 15.6 µM (inactive) | 48 | > 100 µM (inactive) | > 100 µM (inactive) | > 100 µM (inactive) | 29.2 µM (inactive) | 96.2 µM (inactive) | 13.1 µM (inactive)
17 | N/N=C1\C(=O)N(C2CCCCC2)C(=O)C1C(=O)NC1CCCCC1 (configuration not stated) | > 100 µM (inactive) | > 100 µM (inactive) | > 100 µM (inactive) | > 100 µM (inactive) | > 100 µM (inactive) | 21 µM (inactive) | > 100 µM (inactive) | > 100 µM (inactive) | 56.4 µM (inactive) | > 100 |  | 81.8 µM (inactive) | > 100 µM (inactive) | > 100 µM (inactive) | > 100 µM (inactive) | 
18 | COC1=CC(=O)[C@H]2[C@H](C)C(c3ccccc3)[C@@]2(C)C1=O (some centres not stated) |  | > 100 µM (inactive) | > 100 µM (inactive) | > 100 µM (inactive) | > 100 µM (inactive) | > 100 µM (inactive) | > 100 µM (inactive) | > 100 µM (inactive) | > 100 µM (inactive) | > 100 | > 100 µM (inactive) | > 100 µM (inactive) | > 100 µM (inactive) |  | > 100 µM (inactive) | > 100 µM (inactive)
19 | CC1=C(C(=O)CC(=O)C(=O)Nc2ccc(C)c(C)c2)Sc2ccccc2N1 | > 100 µM (inactive) | > 100 µM (inactive) | > 100 µM (inactive) |  | > 100 µM (inactive) | > 100 µM (inactive) |  | > 100 µM (inactive) | > 100 µM (inactive) | > 100 | > 100 µM (inactive) | > 100 µM (inactive) | > 100 µM (inactive) | > 100 µM (inactive) | > 100 µM (inactive) | > 100 µM (inactive)
20 | O=C1C(Cl)C(c2ccccc2)N1n1cnc2ccccc2c1=O (configuration not stated) | > 100 µM (inactive) | > 100 µM (inactive) | > 100 µM (inactive) | > 100 µM (inactive) | > 100 µM (inactive) | > 100 µM (inactive) | > 100 µM (inactive) | 23.6 µM (inactive) | 19.4 µM (inactive) | > 100 | > 100 µM (inactive) | > 100 µM (inactive) | > 100 µM (inactive) | 28.4 µM (inactive) |  | 76.9 µM (inactive)
